Results on two molecules are retold here after paper PMC5742070 (Xenobiotica; the fate of foreign compounds in biological …, 2020).

Data set [1] concerns Caco-2 cells. The note with it: ref Gertz et al., 2013; cited from earlier work.
The subject of data set [2] is CYP3A. The data set can be described thus: MDZ kinetics used for initial estimates. In kind it is biochemical, rat.
For data set [3] the following is noted: substrate related parameter; ref Kotegawa et al., 2002, Matsuda et al., 2012; cited from earlier work.
Data set [4] deals with CYP3A. The settings on record: substrate related parameter; ref Kirby et al., 2011; cited from earlier work.

As for `CC[C@H]1OC(=O)[C@H](C)[C@@H](O[C@H]2C[C@@](C)(OC)[C@@H](O)[C@H](C)O2)[C@H](C)[C@@H](O[C@@H]2O[C@H](C)C[C@H](N(C)C)[C@H]2O)[C@](C)(O)C[C@@H](C)C(=O)[C@H](C)[C@@H](O)[C@]1(C)O` [ERY, erythromycin], the Papp – broadly, the rate of passage across a membrane or cell layer, normalised by area and donor concentration – in data set [1] is 0.44 ×10⁻⁶ cm/s.
With `Cc1ncc2n1-c1ccc(Cl)cc1C(c1ccccc1F)=NC2` [MDZ, midazolam], the “kcat (k3)” value in data set [2] (initial estimate from experimental samples without inhibitor) is on record as “approx. 10 min^−1”. Also, the Km – broadly, the substrate concentration at which the rate is half of its maximum – in data set [2] (rat, liver microsomes) was 10 µM. For the same molecule, the “Fg (fraction escaping gut)” value in data set [3] is given as 0.75. The “fm (fraction metabolized by CYP3A)” value in data set [4] is on record as 0.93. Moreover, in data set [1], the apparent permeability coefficient (Papp) was 32.4 ×10⁻⁶ cm/s.
